US20150203517A1, “Prodrugs of Compounds that Enhance Antifungal Activity and Compositions of Said Prodrugs” (priority 2014, published 2015)
In brackets after ≈: the same amount, converted by molar mass. Where a name gives a salt, the structure may show the parent alone. Read-outs that look alike come from different tables or passages of the source.

Assay: Saline solubility at 1.00 mg/mL and 0.50 mg/mL (with pH by indicator paper)
Type: physicochemical
Settings: for pH at 1.00 mg/mL of MGCD290 in saline: final concentration of hydroxamate 1 1.00 mg/mL, pH indicator paper; for solubility at 1 h: saline or isotonic, thermodynamic from solid, centrifuged, soluble = no precipitate formed
Procedure: Assays were performed to determine the saline solubility at 1.00 and 0.50 mg/ml and the stability of certain of the prodrug compounds of Examples 1-111. The following procedures were used.
Step 1. Sample preparation. An amount of the compound sample was precisely weighed to correspond to around 5 mg of the hydroxamate of compound 1, taking into account the mass of the leaving group and the salt factor if applicable. The sample was placed in a 16×125 mm glass screw cap tube. Saline was added so that the final concentration of hydroxamate 1 was 1.00 mg/mL. The pH was measured with pH indicator paper. The tube was shaken for 1 hour on a Vortex apparatus then centrifuged at 3000 rpm (1800 rcf) for 5 minutes. If the compound example was soluble (no precipitate formed) the procedure continued to step 2. If a precipitate formed then the sample was diluted with saline so that the final concentration of the hydroxamate of compound 1 was 0.50 mg/mL, and the shaking and centrifuging steps were repeated. If the compound example was soluble (no precipitate formed) the procedure continued to step 2. If a precipitate formed the sample was discarded. Step 2. HPLC analysis. A 500 μL aliquot of a sample solution prepared according to Step 1 was taken up into a 1.5 mL injection vial to which was added 500 μL of saline. The vial was shaken on a Vortex apparatus, injected into the HPLC instrument (UV detection, zero time point) and the retention time and purity of the sample compound were determined. The injection was repeated after 6 hours and 24 hours, and a comparison was made of the retention time, peak areas and level of degradation (if any) using the GDADI50 method.

[1] = 0.50 mg/mL as hydroxamate 1, shaken 1 hour, read-out: Soluble at 0.5 mg/mL of MGCD290 (Y/N)
[2] = 1.00 mg/mL as hydroxamate 1, shaken 1 hour, read-out: Soluble at 1.00 mg/mL of MGCD290 (Y/N)

Row | Structure (SMILES) | pH at 1.00 mg/mL of MGCD290 in saline | solubility at 1 h [1] [µg/mL] | solubility at 1 h [2] [µg/mL]
1 | COCCOCCOCCOCCOCC(=O)NCC1(C(=O)ONC(=O)Cc2ccc(CCCCc3ccccc3)cc2)CC1 [Compound 56] | 4.5-5 | < 500 | < 1000
2 | COCCOCCOCCOCCOCC(=O)N1CCN(C(=O)ONC(=O)Cc2ccc(CCCCc3ccccc3)cc2)CC1 [Compound 81] | 4.5-5 | – | > 1000
3 | NCCNCC(=O)NCCCC(=O)ONC(=O)Cc1ccc(CCCCc2ccccc2)cc1 [Compound 133, 2-(2-Aminoethylamino)-N-(4-oxo-4-(2-(4-(4-phenylbutyl)phenyl)acetamidooxy)butyl) acetamide dihydrochloride] | 4.5-5 | < 500 | < 1000
4 | COCCOCCOCCOCCOCC(=O)NCCC(=O)ONC(=O)Cc1ccc(CCCCc2ccccc2)cc1 [Compound 61] | 4.5-5 | < 500 | < 1000
5 | CCOC(=O)CNC(=O)ONC(=O)Cc1ccc(CCCCc2ccccc2)cc1 [Compound 75] | 4.5-5 | < 500 | < 1000
6 | COCCOCC(=O)NCCCC[C@H](NC(=O)COCCOC)C(=O)ONC(=O)Cc1ccc(CCCCc2ccccc2)cc1 [Compound 70] | 4.5-5 | < 500 | < 1000
7 | CN1CCN(C(=O)ONC(=O)Cc2ccc(CCCCc3ccccc3)cc2)CC1.Cl [Compound 45] | 4-4.5 | < 500 | < 1000
8 | COCCOCCOCCOCCOCCOCC(=O)N1CCN(C(=O)ONC(=O)Cc2ccc(CCCCc3ccccc3)cc2)CC1 [Compound 82] | 4.5-5 | – | > 1000
9 | COCCOCCOCCOCCOCC(=O)N[C@@H](C)CC(=O)ONC(=O)Cc1ccc(CCCCc2ccccc2)cc1 [Compound 88] | 4.5-5 | < 500 | < 1000
10 | CC(C)OC(=O)ONC(=O)Cc1ccc(CCCCc2ccccc2)cc1 [Compound 76, N-(isopropoxycarbonyloxy)-2-(4-(4-phenylbutyl)phenyl)acetamide] | 4.5-5 | < 500 | < 1000
11 | COCC(=O)NCCCC[C@H](NC(=O)COC)C(=O)NCCC(=O)ONC(=O)Cc1ccc(CCCCc2ccccc2)cc1 [Compound 67] | 4.5-5 | < 500 | < 1000
12 | COCCOCCOCC(=O)NCC1(C(=O)ONC(=O)Cc2ccc(CCCCc3ccccc3)cc2)CC1 [Compound 55, 2-(2-(2-Methoxyethoxyl)ethoxy)-N-((1-((2-(4-(4-phenylbutyl)phenyl)acetamidooxy)carbonyl)cyclopropyl)methyl)acetamide] | – | < 500 | < 1000
13 | COCCOCCOCCOCCOCCOCC(=O)NCCC(=O)ONC(=O)Cc1ccc(CCCCc2ccccc2)cc1 [Compound 62] | 4.5-5 | < 500 | < 1000
14 | O=C(Cc1ccc(CCCCc2ccccc2)cc1)NOC(=O)CCC1CCCCC1 [Compound 52] | – | < 500 | < 1000
15 | CCC(=O)ONC(=O)Cc1ccc(CCCCc2ccccc2)cc1 [Compound 52E] | – | < 500 | < 1000

Other lines, results leading:

Row | pH at 1.00 mg/mL of MGCD290 in saline | solubility at 1 h [1] [µg/mL] | solubility at 1 h [2] [µg/mL] | Structure (SMILES)
16 | 4.5-5 | – | > 1000 | COCCOCCOCCOCCOCC(=O)NCCCC[C@H](NC(=O)COCCOCCOCCOCCOC)C(=O)NCCCC(=O)ONC(=O)Cc1ccc(CCCCc2ccccc2)cc1 [Compound 102]
17 | 4.5-5 | – | > 1000 | COCCOCCOCC(=O)NCCCC[C@H](NC(=O)COCCOCCOC)C(=O)NC[C@H](C)C(=O)ONC(=O)Cc1ccc(CCCCc2ccccc2)cc1 [Compound 91]
18 | 4.5-5 | < 500 | < 1000 | COCCC(=O)NCCCC[C@H](NC(=O)CCOC)C(=O)NCCC(=O)ONC(=O)Cc1ccc(CCCCc2ccccc2)cc1 [Compound 148]
19 | 4.5-5 | < 500 | < 1000 | COCCOCCOCC(=O)NCC[C@H](NC(=O)COCCOCCOC)C(=O)NCCC(=O)ONC(=O)Cc1ccc(CCCCc2ccccc2)cc1 [Compound 147]
20 | 4.5-5 | – | > 1000 | Cl.O=C(Cc1ccc(CCCCc2ccccc2)cc1)NOC(=O)CCC(=O)N1CCNCC1 [Compound 123, N-(4-oxo-4-(piperazin-1-yl)butanoyloxy)-2-(4-(4-phenylbutyl)phenyl) acetamide hydrochloride]
21 | 5.5-6 | < 500 | < 1000 | COCCOCCOCC(=O)NCCN(CC(=O)NCCC(=O)ONC(=O)Cc1ccc(CCCCc2ccccc2)cc1)C(=O)COCCOCCOC [Compound 136]
22 | 4.5-5 | – | > 1000 | COCCOCCOCCOCCOCCOCC(=O)N1CCC(CC(=O)ONC(=O)Cc2ccc(CCCCc3ccccc3)cc2)CC1 [Compound 117]
23 | 4.5-5 | – | > 1000 | COCCOCCOCC(=O)NCCCC[C@H](NC(=O)COCCOCCOC)C(=O)N1CCC[C@H]1C(=O)ONC(=O)Cc1ccc(CCCCc2ccccc2)cc1 [Compound 107, N,N′-((S)-6-Oxo-6-((S)-2-((2-(4-(4-phenylbutyl)phenyl)acetamidooxy)carbonyl)pyrrolidin-1-yl)hexane-1,5-diyl)bis(2-(2-(2-methoxyethoxyl)ethoxy)acetamide)]
24 | 4.5-5 | < 500 | < 1000 | COCCOCCOCC(=O)NC[C@H](NC(=O)COCCOCCOC)C(=O)NCCC(=O)ONC(=O)Cc1ccc(CCCCc2ccccc2)cc1 [Compound 143]
25 | 4.5-5 | 500 to 1000 (≈ 634 to 1270 µM) | < 1000 | COCCOCCOCCNC(=O)CN(CC(=O)NCCOCCOCCOC)C(=O)CCC(=O)ONC(=O)Cc1ccc(CCCCc2ccccc2)cc1 [Compound 95, 4-oxo-N,N-bis (12-oxo-2,5,8-trioxa-11-azatridecan-13-yl)-4-(2-(4-(4-phenylbutyl)phenyl)acetamidooxy)butanamide]
26 | 5.5-6 | < 500 | < 1000 | COCCOCCOCC(=O)N1CC(CCCC(=O)ONC(=O)Cc2ccc(CCCCc3ccccc3)cc2)C1 [Compound 128B]
27 | 4-4.5 | < 500 | < 1000 | Cl.O=C(Cc1ccc(CCCCc2ccccc2)cc1)NOC(=O)C1CCNCC1 [Compound 118, 2-(4-(4-phenylbutyl)phenyl)-N-(piperidine-4-carbonyloxy)acetamide hydrochloride]
28 | 4.5-5 | – | > 1000 | Cl.O=C(Cc1ccc(CCCCc2ccccc2)cc1)NOC(=O)CCN1CCNCC1=O [Compound 128, N-(3-(2-oxopiperazin-1-yl)propanoyloxy)-2-(4-(4-phenylbutyl)phenyl) acetamide hydrochloride]
29 | 4.5-5 | < 500 | < 1000 | COCCOCC(=O)NCC[C@H](NC(=O)COCCOC)C(=O)NCCC(=O)ONC(=O)Cc1ccc(CCCCc2ccccc2)cc1 [Compound 163]
